The text below walks through data of patent publication US20240109930A1, “TRIAZOLYL-METHYL SUBSTITUTED ALPHA-D-GALACTOPYRANOSIDE DERIVATIVES” (Idorsia Pharmaceuticals Ltd, priority 2021, published 2024).

pIC50: −log10 of the molar value.

In one assay the target is human Gal-3 (hGal-3) (Homo sapiens (Human), UniProt P17931). Briefly: Competitive binding assay: biotinylated hGal-3 binding to microplate-adsorbed asialofetuin (ASF). The note with it: IC50 values from several measurements given as geomean. As to the method: (§1) The inhibitory activity of compounds is determined in competitive binding assays. This spectrophotometric assay measures the binding of biotinylated human Gal-3 (hGal-3) or human Gal-1 (hGal-1), respectively, to a microplate-adsorbed glycoprotein, asialofetuin (ASF) (Proc Natl Acad Sci USA. 2013 Mar. 26; 110(13):5052-7.). Alternatively, and preferably, a human Gal-1 version in which all six cysteines are substituted by serines may be used.
human Gal-3 (hGal-3), sequence (P17931 whole entry): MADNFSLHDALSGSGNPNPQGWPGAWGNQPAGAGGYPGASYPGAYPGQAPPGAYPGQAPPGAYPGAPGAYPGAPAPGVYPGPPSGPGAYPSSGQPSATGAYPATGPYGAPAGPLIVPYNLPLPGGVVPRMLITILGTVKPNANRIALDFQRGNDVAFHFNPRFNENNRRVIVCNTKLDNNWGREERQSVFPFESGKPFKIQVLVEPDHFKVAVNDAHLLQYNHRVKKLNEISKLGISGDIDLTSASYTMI
(§2) Briefly, compounds are serially diluted in DMSO (working dilutions). ASF-coated 384well plates are supplemented with 22.8 μL/well of biotinylated hGal-3 or hGal-1 in assay buffer (i.e. 300-1000 ng/mL biotinylated hGal-3 or hGal-1) to which 1.2 μL of compound working dilutions are added and mixed.
(§3) Plates are incubated for 3 hours at 4° C., then washed with cold assay buffer (3×50 uL), incubated for 1 hour with 25 μL/well of a streptavidin-peroxidase solution (diluted in assay buffer to 80 ng/mL) at 4° C., followed by further washing steps with assay buffer (3×50 uL). Finally, 25 μL/well of ABTS substrate is added.
(§4) The calculated IC50 values may fluctuate depending on the daily assay performance. Fluctuations of this kind are known to those skilled in the art. IC50 values from several measurements are given as geomean values.

The target in the next assay is human Gal-1 (hGal-1) (Homo sapiens, UniProt P09382, C131S/C17S/C43S/C61S/C89S). Briefly: Competitive binding assay: biotinylated hGal-1 binding to microplate-adsorbed asialofetuin (ASF). The following applies: IC50 values from several measurements given as geomean. As to the method:
as §1, §2, §3, §4

With `CO[C@@H]1[C@@H](n2cc(-c3ccc(Cl)c(F)c3F)nn2)[C@@H](O)[C@@H](CO)O[C@@H]1Cc1cn(C2(CF)CC2(F)F)nn1` (stereo partly drawn) [Ex 2.1.76., (2R,3R,4S,5R,6R)-4-(4-(4-chloro-2,3-difluorophenyl)-1H-1,2,3-triazol-1-yl)-6-((1-(2,2-difluoro-1-(fluoromethyl)cyclopropyl)-1H-1,2,3-triazol-4-yl)methyl)-2-(hydroxymethyl)-5-methoxytetrahydro-2H-pyran-3-ol], the results for the pIC50 at human Gal-3 (hGal-3) and at human Gal-1 (hGal-1) were 7.70 and 6.09, respectively.

`CO[C@@H]1[C@@H](n2cc(-c3ccc(Cl)c(F)c3F)nn2)[C@@H](O)[C@@H](CO)O[C@@H]1Cc1cn(C2CCCCC2(F)F)nn1` (single isomer, unassigned) [Example 2.1.80.B]: the pIC50 – broadly, −log10 of the IC50, conventionally taken in molar units – is 7.52 on human Gal-3 (hGal-3) and 5.76 at human Gal-1 (hGal-1).

As to `CO[C@@H]1[C@@H](n2cc(-c3ccc(Br)c(F)c3F)nn2)[C@@H](O)[C@@H](CO)O[C@@H]1Cc1cn([C@H]2CCC[C@@H]2O)nn1` [Ex 4.1.3.], the pIC50 at human Gal-3 (hGal-3) is 7.40; on human Gal-1 (hGal-1), 5.33.

Regarding `CO[C@@H]1[C@@H](n2cc(-c3ccc(Cl)c(F)c3F)nn2)[C@@H](O)[C@@H](CO)O[C@@H]1Cc1cn(C23CCC(O)(CC2)CC3)nn1` [Ex 2.1.8.], the negative logarithm of the IC50 (pIC50) is 7.52 at human Gal-3 (hGal-3) and 5.35 at human Gal-1 (hGal-1).

As for `CO[C@@H]1[C@@H](n2cc(-c3ccc(F)c(F)c3F)nn2)[C@@H](O)[C@@H](CO)O[C@@H]1Cc1cn(C23CC(C2)C3)nn1` [Ex 3.1.12.], the pIC50 was 7.22 on human Gal-3 (hGal-3) and 6.02 on human Gal-1 (hGal-1).

Turning to `CO[C@@H]1[C@@H](n2cc(-c3ccc(Cl)c(F)c3F)nn2)[C@@H](O)[C@@H](CO)O[C@@H]1Cc1cn(C2CCCCC2(F)F)nn1` (single isomer, unassigned) [Example 2.1.80.A], the pIC50 on human Gal-3 (hGal-3) was 7.70; on human Gal-1 (hGal-1), 5.99.

Take `CO[C@@H]1[C@@H](n2cc(-c3ccc(F)c(F)c3F)nn2)[C@@H](O)[C@@H](CO)O[C@@H]1Cc1cn(C2(CO)CC2)nn1` [Ex 3.1.4.]: the results for the negative-log IC50 (pIC50) on human Gal-3 (hGal-3) and on human Gal-1 (hGal-1) were 7.22 and 6.09, respectively.

`CO[C@@H]1[C@@H](n2cc(-c3ccc(Br)c(F)c3F)nn2)[C@@H](O)[C@@H](CO)O[C@@H]1Cn1cc(C2(O)CCOCC2)nn1` [Ex 4.2.35.]: the negative logarithm of the IC50 (pIC50) on human Gal-3 (hGal-3) is 7.15; at human Gal-1 (hGal-1), 5.34.

Regarding `CO[C@@H]1[C@@H](n2cc(-c3ccc(Cl)c(F)c3F)nn2)[C@@H](O)[C@@H](CO)O[C@@H]1Cc1cn([C@@H]2CCC[C@H]2F)nn1` (relative stereo) [Example 2.1.79.CD, (2R,3R,4S,5R,6R)-4-(4-(4-chloro-2,3-difluorophenyl)-1H-1,2,3-triazol-1-yl)-6-((1-((1R*,2R*)-2-fluorocyclopentyl)-1H-1,2,3-triazol-4-yl)methyl)-2-(hydroxymethyl)-5-methoxytetrahydro-2H-pyran-3-ol], the pIC50 at human Gal-3 (hGal-3) is 7.22; on human Gal-1 (hGal-1), 5.46.

Turning to `CO[C@@H]1[C@@H](n2cc(-c3ccc(Br)c(F)c3F)nn2)[C@@H](O)[C@@H](CO)O[C@@H]1Cn1cc(C2(O)CC2)nn1` [Ex 4.2.36.], the pIC50 at human Gal-3 (hGal-3) was 6.89; at human Gal-1 (hGal-1), 5.23.

Regarding `CO[C@@H]1[C@@H](n2cc(-c3ccc(Cl)c(F)c3F)nn2)[C@@H](O)[C@@H](CO)O[C@@H]1Cc1cn([C@]2(C)CCO[C@@H]2C)nn1` (single isomer, unassigned) [Example 2.1.68.A, (2R,3R,4S,5R,6R)-4-(4-(4-chloro-2,3-difluorophenyl)-1H-1,2,3-triazol-1-yl)-6-((1-((2R*,3R*)-2,3-dimethyltetrahydrofuran-3-yl)-1H-1,2,3-triazol-4-yl)methyl)-2-(hydroxymethyl)-5-methoxytetrahydro-2H-pyran-3-ol], the pIC50 at human Gal-3 (hGal-3) was 7.52; at human Gal-1 (hGal-1), 5.96.

Regarding `CO[C@@H]1[C@@H](n2cc(-c3ccc(F)c(F)c3F)nn2)[C@@H](O)[C@@H](CO)O[C@@H]1Cc1cn(C23CC(F)(C2)C3)nn1` [Ex 3.1.25.], the values for the pIC50 at human Gal-3 (hGal-3) and on human Gal-1 (hGal-1) were 7.40 and 5.81, respectively.

As for `CO[C@@H]1[C@@H](n2cc(-c3ccc(F)c(F)c3F)nn2)[C@@H](O)[C@@H](CO)O[C@@H]1Cn1cc(C2(O)CCCC2)nn1` [Ex 3.2.33.], the pIC50 on human Gal-3 (hGal-3) is 7.05; on human Gal-1 (hGal-1) it was 5.90.

Take `CO[C@@H]1[C@@H](n2cc(-c3ccc(Br)c(F)c3F)nn2)[C@@H](O)[C@@H](CO)O[C@@H]1Cc1cn(C2(C(F)F)CCC2)nn1` [Ex 4.1.43.]: the pIC50 was 7.52 at human Gal-3 (hGal-3) and 6.02 on human Gal-1 (hGal-1).

Turning to `CO[C@@H]1[C@@H](n2cc(-c3ccc(Cl)c(F)c3F)nn2)[C@@H](O)[C@@H](CO)O[C@@H]1Cc1cn(C2COCC2(F)F)nn1` (mixture of isomers) [Example 2.1.90.B], the results for the pIC50 at human Gal-3 (hGal-3) and at human Gal-1 (hGal-1) were 7.70 and 6.04, respectively.

Turning to `CO[C@@H]1[C@@H](n2cc(-c3ccc(F)c(F)c3F)nn2)[C@@H](O)[C@@H](CO)O[C@@H]1Cc1cn(C23CCOC(C)(C2)C3)nn1` [Ex 3.1.62.], the figures for the pIC50 at human Gal-3 (hGal-3) and at human Gal-1 (hGal-1) were 7.22 and 6.09, respectively.

Turning to `CO[C@@H]1[C@@H](n2cc(-c3ccc(Br)c(F)c3F)nn2)[C@@H](O)[C@@H](CO)O[C@@H]1Cc1cn(C23CC(F)(C2)C3)nn1` [Ex 4.1.25., (2R,3R,4S,5R,6R)-4-(4-(4-bromo-2,3-difluorophenyl)-1H-1,2,3-triazol-1-yl)-6-((1-(3-fluorobicyclo[1.1.1]pentan-1-yl)-1H-1,2,3-triazol-4-yl)methyl)-2-(hydroxymethyl)-5-methoxytetrahydro-2H-pyran-3-ol], the pIC50 is 7.30 at human Gal-3 (hGal-3) and 5.49 on human Gal-1 (hGal-1).

In the case of `COCC1(n2cc(C[C@H]3O[C@H](CO)[C@H](O)[C@H](n4cc(-c5ccc(Br)c(F)c5F)nn4)[C@H]3OC)nn2)CCC1` [Ex 4.1.21.], the values for the negative logarithm of the IC50 (pIC50) on human Gal-3 (hGal-3) and on human Gal-1 (hGal-1) were 7.15 and 5.82, respectively.

As to `CO[C@@H]1[C@@H](n2cc(-c3ccc(Cl)c(F)c3F)nn2)[C@@H](O)[C@@H](CO)O[C@@H]1Cc1cn([C@@H]2CC[C@@H]2F)nn1` (single isomer, unassigned) [Example 2.1.88.B, (2R,3R,4S,5R,6R)-4-(4-(4-chloro-2,3-difluorophenyl)-1H-1,2,3-triazol-1-yl)-6-((1-((1R*,2S*)-2-fluorocyclobutyl)-1H-1,2,3-triazol-4-yl)methyl)-2-(hydroxymethyl)-5-methoxytetrahydro-2H-pyran-3-ol], the pIC50 at human Gal-3 (hGal-3) was 7.52; at human Gal-1 (hGal-1), 6.04.

As to `CO[C@@H]1[C@@H](n2cc(-c3ccc(F)c(F)c3F)nn2)[C@@H](O)[C@@H](CO)O[C@@H]1Cc1cn(C2(CO)CC(F)(F)C2)nn1` [Ex 3.1.18.], the pIC50 is 7.05 on human Gal-3 (hGal-3) and 5.86 on human Gal-1 (hGal-1).

Take `CO[C@@H]1[C@@H](n2cc(-c3ccc(Cl)c(F)c3F)nn2)[C@@H](O)[C@@H](CO)O[C@@H]1Cc1cn([C@@H]2COC[C@@H]2F)nn1` (single isomer, unassigned) [Example 2.1.74.B, (2R,3R,4S,5R,6R)-4-(4-(4-chloro-2,3-difluorophenyl)-1H-1,2,3-triazol-1-yl)-6-((1-((3R*,4R*)-4-fluorotetrahydrofuran-3-yl)-1H-1,2,3-triazol-4-yl)methyl)-2-(hydroxymethyl)-5-methoxytetrahydro-2H-pyran-3-ol]: the pIC50 at human Gal-3 (hGal-3) was 7.40; on human Gal-1 (hGal-1), 5.79.

For the molecule `CO[C@@H]1[C@@H](n2cc(-c3ccc(Cl)c(F)c3F)nn2)[C@@H](O)[C@@H](CO)O[C@@H]1Cc1cn([C@]2(C)C[C@H](O)C2)nn1` [Ex 2.1.19.], the values for the negative-log IC50 (pIC50) on human Gal-3 (hGal-3) and on human Gal-1 (hGal-1) were 7.40 and 6.20, respectively.

Turning to `CO[C@@H]1[C@@H](n2cc(-c3ccc(C)c(F)c3F)nn2)[C@@H](O)[C@@H](CO)O[C@@H]1Cc1cn(C2CC3(CC3)C2)nn1` [Ex 1.1.26.], the figures for the pIC50 on human Gal-3 (hGal-3) and on human Gal-1 (hGal-1) were 7.22 and 4.77, respectively.

`CO[C@@H]1[C@@H](n2cc(-c3ccc(Cl)c(F)c3F)nn2)[C@@H](O)[C@@H](CO)O[C@@H]1Cn1cc(C2CCCC2)nn1` [Ex 2.2.32.]: the negative logarithm of the IC50 (pIC50) was 7.30 at human Gal-3 (hGal-3) and 5.42 on human Gal-1 (hGal-1).

Turning to `CO[C@@H]1[C@@H](n2cc(-c3ccc(Cl)c(F)c3F)nn2)[C@@H](O)[C@@H](CO)O[C@@H]1Cc1cn(C2CC3(CC3)C2)nn1` [Ex 2.1.26.], the pIC50 at human Gal-3 (hGal-3) was 7.00; at human Gal-1 (hGal-1) it was 5.10.

In the case of `CO[C@@H]1[C@@H](n2cc(-c3ccc(Cl)c(F)c3F)nn2)[C@@H](O)[C@@H](CO)O[C@@H]1Cc1cn([C@H]2CCCC[C@H]2F)nn1` [Example 2.1.81.B, (2R,3R,4S,5R,6R)-4-(4-(4-chloro-2,3-difluorophenyl)-1H-1,2,3-triazol-1-yl)-6-((1-((1S,2R)-2-fluorocyclohexyl)-1H-1,2,3-triazol-4-yl)methyl)-2-(hydroxymethyl)-5-methoxytetrahydro-2H-pyran-3-ol], the results for the negative-log IC50 (pIC50) at human Gal-3 (hGal-3) and at human Gal-1 (hGal-1) were 7.40 and 5.52, respectively.

Turning to `CO[C@@H]1[C@@H](n2cc(-c3ccc(Cl)c(F)c3F)nn2)[C@@H](O)[C@@H](CO)O[C@@H]1Cc1cn(C2CC(F)C2)nn1` (single isomer, unassigned) [Example 2.1.60.B], the figures for the pIC50 on human Gal-3 (hGal-3) and at human Gal-1 (hGal-1) were 7.40 and 5.92, respectively.

Regarding `CO[C@@H]1[C@@H](n2cc(-c3ccc(Cl)c(F)c3F)nn2)[C@@H](O)[C@@H](CO)O[C@@H]1Cn1cc(C2(O)CC2)nn1` [Ex 2.2.36.], the results for the pIC50 on human Gal-3 (hGal-3) and at human Gal-1 (hGal-1) were 7.05 and 5.50, respectively.
